Conditions: 323.15 K, Liquid, Vibrating tube method

CCCC(=O)OCC(COC(=O)CCC)(COC(=O)CCC)COC(=O)CCC [pentaerythritol tetrabutyrate]
Conditions	mass density [kg/m3]
15786 kPa	1036
15818 kPa	1036
15856 kPa	1036.1
15888 kPa	1036
15920 kPa	1036
15952 kPa	1036.1
15991 kPa	1036.1
16024 kPa	1036.1
16057 kPa	1036.1
16097 kPa	1036.2
16131 kPa	1036.3
16164 kPa	1036.2
16204 kPa	1036.3
16238 kPa	1036.4
16305 kPa	1036.3
16381 kPa	1036.4
16759 kPa	1036.6
16795 kPa	1036.7
16831 kPa	1036.7
16875 kPa	1036.7
18410 kPa	1037.7
18440 kPa	1037.7
18726 kPa	1037.9
18756 kPa	1038
19188 kPa	1038.2
19252 kPa	1038.3
19278 kPa	1038.4
19311 kPa	1038.3
19396 kPa	1038.4
19436 kPa	1038.4
19469 kPa	1038.4
19501 kPa	1038.4
19541 kPa	1038.4
19574 kPa	1038.4
19608 kPa	1038.4
19648 kPa	1038.6
19682 kPa	1038.6
19970 kPa	1038.7
20047 kPa	1038.7
20089 kPa	1038.7
20124 kPa	1038.7
20159 kPa	1038.9
20202 kPa	1038.8
20238 kPa	1039
20546 kPa	1039.1
20584 kPa	1039
21551 kPa	1039.8
21639 kPa	1039.7
21673 kPa	1039.9
21714 kPa	1039.9
21749 kPa	1039.8
21784 kPa	1039.8
21826 kPa	1039.9
21862 kPa	1040
21898 kPa	1040
21934 kPa	1040
21976 kPa	1040
22011 kPa	1040
22048 kPa	1040
22091 kPa	1040.1
22126 kPa	1040
22162 kPa	1040.2
22206 kPa	1040.1
22243 kPa	1040.2
22279 kPa	1040.1
22323 kPa	1040.3
22360 kPa	1040.1
22398 kPa	1040.2
22443 kPa	1040.4
22480 kPa	1040.3
22518 kPa	1040.3
22563 kPa	1040.3
22602 kPa	1040.4
23845 kPa	1041.3
23898 kPa	1041.2
23944 kPa	1041.2
23987 kPa	1041.3
24030 kPa	1041.3
24100 kPa	1041.4
24135 kPa	1041.4
24290 kPa	1041.4
24326 kPa	1041.4
24362 kPa	1041.4
24397 kPa	1041.5
24789 kPa	1041.8
24827 kPa	1041.8
24872 kPa	1041.9
24910 kPa	1041.8
25317 kPa	1042.1
25357 kPa	1042.1
25403 kPa	1042.2
25442 kPa	1042.2
25481 kPa	1042.2
25528 kPa	1042.2
25569 kPa	1042.3
25608 kPa	1042.2
25656 kPa	1042.3
25696 kPa	1042.3
25736 kPa	1042.3
25784 kPa	1042.5
26584 kPa	1042.8
27050 kPa	1043.1
27094 kPa	1043.1
27148 kPa	1043.2
27193 kPa	1043.3
27239 kPa	1043.4
27294 kPa	1043.3
27340 kPa	1043.4
27386 kPa	1043.3
27432 kPa	1043.4
27488 kPa	1043.4
27535 kPa	1043.5
27876 kPa	1043.7
27985 kPa	1043.8
28093 kPa	1043.7
28151 kPa	1044
28200 kPa	1043.9
28250 kPa	1043.9
28409 kPa	1044
28460 kPa	1044.1
28519 kPa	1044
28562 kPa	1044.2
28628 kPa	1044.1
28679 kPa	1044.2
28730 kPa	1044.2
29066 kPa	1044.5
29135 kPa	1044.4
29177 kPa	1044.5
29260 kPa	1044.5
29301 kPa	1044.6
29338 kPa	1044.7
29373 kPa	1044.7
29415 kPa	1044.7
29449 kPa	1044.6
29492 kPa	1044.7
29529 kPa	1044.8
29563 kPa	1044.8
29598 kPa	1044.6
29642 kPa	1044.9
29678 kPa	1044.8
29720 kPa	1044.9
29756 kPa	1044.8
29793 kPa	1044.8
29839 kPa	1044.9
30028 kPa	1045.1
30074 kPa	1045.1
